Reference: US20190388387A1, “COMPOSITION FOR INHIBITING MYOFIBROSIS” (SUNTORY HOLDINGS LIMITED, priority 2017, published 2019)

Legend:
[1] = system: rat skeletal muscle-derived muscle satellite cells; test: Morphological changes of muscle satellite cells to myofibroblasts under TGF β fibrosis induction (Masson's Trichrome staining); format: cell-based; settings: TGF β 1 ng/mL
Description: Gastrocnemius, soleus, plantaris muscle, tibialis anterior, extensor digitorum longus, and quadriceps were extracted from male Fischer 344 rats of 9 to 15 weeks old under anesthesia, and minced in phosphate buffered saline (PBS) (Life Technologies Corporation) on ice. The minced muscle tissue was enzymatically degraded by Protease (Sigma-Aldrich) at 37° C., and then centrifuged repeatedly, whereby the muscle satellite cells were isolated. The muscle satellite cells were suspended in Dulbecco's Modified Eagle Medium (DMEM) containing 10% fetal equine serum, and cultured for 24 hours. After culturing, centrifugation was performed again, and the deposited muscle satellite cells were seeded onto an 8-well slide glass (Thermo Fisher Scientific) to a density of 5×10^4 to 7×10^4 cells/mL in F-10 medium (Gibco) containing 20% bovine serum. After seeding, the muscle satellite cells were cultured for 72 hours or 120 hours. The muscle satellite cells for tissue staining were cultured for 72 hours, and muscle satellite cells for genetic analysis were cultured for 120 hours to provide enough cells. In the case of the muscle satellite cells to be cultured for 120 hours, the F-10 medium containing 20% bovine serum was replaced 72 hours after seeding. After the culturing for 72 hours or 120 hours, the muscle satellite cells were cultured in a differentiation-inducing medium for 24 hours. The differentiation-inducing medium was a medium in which a TGF β (TGF-β) signal inhibitor, quercetin, or solvent was added in an amount shown in Table 1 to Dulbecco's Modified Eagle Medium (DMEM) containing 2% fetal equine serum. TGF β (Sigma-Aldrich) was used for fibrosis induction. The compound was added to the differentiation-inducing medium using HCl as solvent to a final concentration of 1 ng/mL. TGF β was added when a TGF β signal inhibitor or quercetin was added. The TGF β signal inhibitor was SB525334 (6-[2-tert-butyl-5-(6-methyl-pyridin-2-yl)-1H-imidazol-4-yl]-quinoxaline available from Wako Pure Chemical Industries, Ltd.). […]

Acta2 gene = test: Fibrosis marker gene expression analysis (quantitative PCR), Acta2 gene; format: cell-based, rat; settings: TGF β 1 ng/mL, 24 hours, Dunnett's test vs. TGF β(+), FIG. 2(a)
Description: (§1) Gastrocnemius, soleus, plantaris muscle, tibialis anterior, extensor digitorum longus, and quadriceps were extracted from male Fischer 344 rats of 9 to 15 weeks old under anesthesia, and minced in phosphate buffered saline (PBS) (Life Technologies Corporation) on ice. The minced muscle tissue was enzymatically degraded by Protease (Sigma-Aldrich) at 37° C., and then centrifuged repeatedly, whereby the muscle satellite cells were isolated. The muscle satellite cells were suspended in Dulbecco's Modified Eagle Medium (DMEM) containing 10% fetal equine serum, and cultured for 24 hours. After culturing, centrifugation was performed again, and the deposited muscle satellite cells were seeded onto an 8-well slide glass (Thermo Fisher Scientific) to a density of 5×10^4 to 7×10^4 cells/mL in F-10 medium (Gibco) containing 20% bovine serum. After seeding, the muscle satellite cells were cultured for 72 hours or 120 hours. […] The cDNAs obtained by reverse transcription reaction was subjected to quantitative PCR in Step One Plus Real Time PCR System using TaqMan Fast Universal PCR Mastermix (Life Technologies Corporation). The expression levels of Colla1 gene and Acta2 gene as a myofibroblast marker were measured. For quantitative PCR, the cells were first maintained at 95° C. for 20 seconds, and then subjected to 40 cycles of reaction at 95° C. for 1 second and 60° C. for 20 seconds. […]

Colla1 gene = test: Fibrosis marker gene expression analysis (quantitative PCR), Colla1 gene; format: cell-based, rat; settings: TGF β 1 ng/mL, 24 hours, FIG. 2(b)
Description: as §1

Row | Structure (SMILES) | TGF β-induced morphological changes of muscle satellite cells to myofibroblasts ([1]; SB525334 1 μM, 24 hours in differentiation-inducing medium, FIG. 1(c)) | expression of Acta2 gene (Acta2 gene; SB525334 1 μM) | expression of Colla1 gene (Colla1 gene; SB525334 1 μM, Dunnett's test vs. TGF β(+)) | morphological changes of muscle satellite cells to myofibroblast-like cells ([1]; quercetin 50 μM, 24 hours, vs. TGF β-added group, FIG. 1(d)) | morphological changes of muscle satellite cells to myofibroblasts ([1]; quercetin 100 μM, 24 hours, vs. 50-μM quercetin-added group, FIG. 1(e)) | expression of Acta2 gene (Acta2 gene; quercetin 100 μM) | expression of Colla1 gene (Colla1 gene; quercetin 50 μM and 100 μM)
1 | Cc1cccc(-c2[nH]c(C(C)(C)C)nc2-c2ccc3nccnc3c2)n1 [SB525334, 6-[2-tert-butyl-5-(6-methyl-pyridin-2-yl)-1H-imidazol-4-yl]-quinoxaline, reference compound] | clearly inhibited | significantly inhibited | significantly inhibited | – | – | – | –
2 | O=c1c(O)c(-c2ccc(O)c(O)c2)oc2cc(O)cc(O)c12 [quercetin] | – | – | – | more inhibited | stronger effect of inhibiting morphological changes | significantly inhibited | inhibited in a concentration-dependent manner
